Laboratory results: US12415834B2, “GhR-binding peptide and composition comprising same” (priority 2021, dated 2025)
Starred links: 1 amine or outer side, 2 acyl side, 3 side chain; linkers in the order of their positions; H or OH if unused. Positions of bridges follow the written chain, without caps; N, C: chain ends. Non-standard residues stand in square brackets, D forms with d. Residues, ends and D or L forms follow the SMILES beside them. Groups on a side chain read outwards from the residue. *: point of attachment. X15 = NC(=O)[C@H](CCCCN*)NC(=O)COCCOCCNC(=O)COCCOCCNC(=O)CC[C@H](NC(=O)CC[C@H](NC(=O)CCCCCCCCCCCCCCCC(=O)O)C(=O)O)C(=O)O; X11 = NC(=O)[C@H](CCCCN*)NC(=O)CC[C@H](NC(=O)CC[C@H](NC(=O)CCCCCCCCCCCCCCCC(=O)O)C(=O)O)C(=O)O; X3 = NC(=O)[C@H](CCCCN*)NC(=O)CC[C@H](NC(=O)CC[C@H](NC(=O)CCCCCCCCCCCCCCC(=O)O)C(=O)O)C(=O)O; X10 = NC(=O)[C@H](CCCCN*)NC(=O)CC[C@H](NC(=O)CC[C@H](NC(=O)CCCc1ccc(I)cc1)C(=O)O)C(=O)O; X18 = NC(=O)[C@H](CCCCN*)NC(=O)CC[C@H](NC(=O)CC[C@H](NC(=O)CCCc1ccccc1)C(=O)O)C(=O)O; Trp(1-CH2CO) = O=C([C@H](Cc1cn(CC(=O)[*:3])c2ccccc12)N[*:1])[*:2]; Trp(5-OMe) = COc1ccc2[nH]cc(C[C@H](N)C(=O)O)c2c1; Butanoyl(4-(4-I-phenyl)) = O=C(CCCc1ccc(I)cc1)*; Trp(5-OH) = N[C@@H](Cc1c[nH]c2ccc(O)cc12)C(=O)O; Phe(4-COOH) = N[C@@H](Cc1ccc(C(=O)O)cc1)C(=O)O; X7 = O=C(O)CN1CCC(N[*:1])(C(=O)[*:2])CC1; C16 diacid = O=C(O)CCCCCCCCCCCCCCC(=O)*; γGlu = O=C(O)[C@H](CCC(=O)[*:2])N[*:1]; X9 = O=C(CCCc1ccc(-c2ccccc2)cc1)*; 4Pal = N[C@@H](Cc1ccncc1)C(=O)O; NMeK = CN[C@@H](CCCCN)C(=O)O; Aib = CC(C)(N)C(=O)O

What follows are molecules tested against T1, Recombinant human GhR-Fc protein (Homo sapiens, UniProt P10912) (assay: SPR binding assay (Biacore T200, single-cycle kinetics) of peptides against immobilized human GhR-Fc). Details: not given.
T1 construct: purchased R&D Systems
T1 sequence (P10912 with tags, fused parts or gaps limits assumed): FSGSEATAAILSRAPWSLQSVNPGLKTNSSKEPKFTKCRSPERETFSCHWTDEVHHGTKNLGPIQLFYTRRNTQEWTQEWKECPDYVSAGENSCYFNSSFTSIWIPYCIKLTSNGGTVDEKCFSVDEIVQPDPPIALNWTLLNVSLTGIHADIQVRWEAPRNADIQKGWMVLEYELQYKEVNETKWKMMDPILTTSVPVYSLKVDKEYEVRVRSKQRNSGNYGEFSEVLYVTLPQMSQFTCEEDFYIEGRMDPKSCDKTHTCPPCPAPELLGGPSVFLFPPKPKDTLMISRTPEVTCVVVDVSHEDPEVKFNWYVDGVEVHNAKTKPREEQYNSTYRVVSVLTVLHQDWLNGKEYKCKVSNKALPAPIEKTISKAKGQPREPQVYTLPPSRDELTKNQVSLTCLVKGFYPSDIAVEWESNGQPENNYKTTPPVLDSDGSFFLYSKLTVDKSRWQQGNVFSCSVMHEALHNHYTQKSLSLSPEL
How it was run: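 Human GhR-Fc amine-coupled to a CM5 chip at pH 4.0; running buffer HBS-EP with 1% DMSO. Peptides measured by single-cycle kinetics on Biacore T200, with solvent correction and baseline subtraction. KD calculated from fitted ka and kd.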

| SMILES | Kd |
| --- | --- |
| COc1ccc2[nH]cc(C[C@@H]3NC(=O)[C@H](CC(N)=O)NC(=O)[C@H](CO)NC(=O)[C@H](C(C)C)NC(=O)[C@H](C(C)C)NC(=O)[C@H](CCCCNC(=O)CC[C@H](NC(=O)CCCc4ccc(-c5ccccc5)cc4)C(=O)O)N(C)C(=O)[C@H](Cc4ccc(C(=O)O)cc4)NC(=O)CSC[C@@H](C(N)=O)NC(=O)[C@H](C(C)C)NC(=O)C4(CCN(CC(=O)O)CC4)NC(=O)[C@H](Cc4c[nH]c5ccc(O)cc45)NC(=O)[C@H](CCCCN)NC(=O)[C@H](Cc4ccc(C(=O)O)cc4)NC3=O)c2c1 [Compound 37] ({CH2CO}-[Phe(4-COOH)][NMeK]([γGlu-X9])VVSN[Trp(5-OMe)][Phe(4-COOH)]K[Trp(5-OH)][X7]VC-NH2; thioether N-13) | 5.81 nM |

Same assay, conditions: SPR, hGhR; Table 1 bicyclic peptides; KD calculated from ka and kd; read-out: KD

| SMILES | Kd |
| --- | --- |
| CC(C)[C@@H]1NC(=O)[C@H](C(C)C)NC(=O)[C@@H]2CCCCNC(=O)Cn3cc(c4ccccc43)C[C@H](NC(=O)[C@H](CC(N)=O)NC(=O)[C@H](CO)NC1=O)C(=O)N[C@@H](Cc1ccc(C(=O)O)cc1)C(=O)N[C@@H](CCCCN)C(=O)N[C@@H](Cc1c[nH]c3ccc(O)cc13)C(=O)NC(C)(C)C(=O)N[C@@H](C(C)C)C(=O)N[C@H](C(=O)NCCCC[C@H](NC(=O)CC[C@H](NC(=O)CC[C@H](NC(=O)CCCc1ccccc1)C(=O)O)C(=O)O)C(N)=O)CSCC(=O)N[C@@H](Cc1ccc(C(=O)O)cc1)C(=O)N2C [Compound 10] ({CH2CO}-[Phe(4-COOH)][NMeK]VVSN[Trp(1-CH2CO)][Phe(4-COOH)]K[Trp(5-OH)][Aib]VC-X18; lactam 2-7; thioether N-13) | 2.03 nM |
| CC(C)[C@@H]1NC(=O)[C@H](C(C)C)NC(=O)[C@@H]2CCCCNC(=O)Cn3cc(c4ccccc43)C[C@H](NC(=O)[C@H](CC(N)=O)NC(=O)[C@H](CO)NC1=O)C(=O)N[C@@H](Cc1ccc(C(=O)O)cc1)C(=O)N[C@@H](CCCCN)C(=O)N[C@@H](Cc1c[nH]c3ccc(O)cc13)C(=O)NC(C)(C)C(=O)N[C@@H](C(C)C)C(=O)N[C@H](C(=O)NCCCC[C@H](NC(=O)CC[C@H](NC(=O)CC[C@H](NC(=O)CCCCCCCCCCCCCCCC(=O)O)C(=O)O)C(=O)O)C(N)=O)CSCC(=O)N[C@@H](Cc1ccc(C(=O)O)cc1)C(=O)N2C [Compound 61] ({CH2CO}-[Phe(4-COOH)][NMeK]VVSN[Trp(1-CH2CO)][Phe(4-COOH)]K[Trp(5-OH)][Aib]VC-X11; lactam 2-7; thioether N-13) | 2.53 nM |
| CC(C)[C@@H]1NC(=O)[C@H](C(C)C)NC(=O)[C@@H]2CCCCNC(=O)Cn3cc(c4ccccc43)C[C@H](NC(=O)[C@H](CC(N)=O)NC(=O)[C@H](CO)NC1=O)C(=O)N[C@@H](Cc1ccc(O)cc1)C(=O)N[C@@H](CCCCN)C(=O)N[C@@H](Cc1c[nH]c3ccc(O)cc13)C(=O)NC(C)(C)C(=O)N[C@@H](C(C)C)C(=O)N[C@H](C(=O)NCCCC[C@H](NC(=O)CC[C@H](NC(=O)CC[C@H](NC(=O)CCCc1ccc(I)cc1)C(=O)O)C(=O)O)C(N)=O)CSCC(=O)N[C@@H](Cc1ccc(O)cc1)C(=O)N2C [Compound 32] ({CH2CO}-Y[NMeK]VVSN[Trp(1-CH2CO)]YK[Trp(5-OH)][Aib]VC-X10; lactam 2-7; thioether N-13) | 0.98 nM |
| CC(C)[C@@H]1NC(=O)[C@H](C(C)C)NC(=O)[C@@H]2CCCCNC(=O)Cn3cc(c4ccccc43)C[C@H](NC(=O)[C@H](CC(N)=O)NC(=O)[C@H](CO)NC1=O)C(=O)N[C@@H](Cc1ccc(C(=O)O)cc1)C(=O)N[C@@H](CCCCN)C(=O)N[C@@H](Cc1c[nH]c3ccc(O)cc13)C(=O)NC(C)(C)C(=O)N[C@@H](C(C)C)C(=O)N[C@H](C(=O)NCCCC[C@H](NC(=O)COCCOCCNC(=O)COCCOCCNC(=O)CC[C@H](NC(=O)CC[C@H](NC(=O)CCCCCCCCCCCCCCCC(=O)O)C(=O)O)C(=O)O)C(N)=O)CSCC(=O)N[C@@H](Cc1ccc(C(=O)O)cc1)C(=O)N2C [Compound 65] ({CH2CO}-[Phe(4-COOH)][NMeK]VVSN[Trp(1-CH2CO)][Phe(4-COOH)]K[Trp(5-OH)][Aib]VC-X15; lactam 2-7; thioether N-13) | 3.33 nM |
| CC(C)[C@@H]1NC(=O)[C@H](C(C)C)NC(=O)[C@@H]2CCCCNC(=O)Cn3cc(c4ccccc43)C[C@H](NC(=O)[C@H](CC(N)=O)NC(=O)[C@H](CO)NC1=O)C(=O)N[C@@H](Cc1ccc(O)cc1)C(=O)N[C@@H](CCCCN)C(=O)N[C@@H](Cc1c[nH]c3ccc(O)cc13)C(=O)NC(C)(C)C(=O)N[C@@H](C(C)C)C(=O)N[C@H](C(=O)NCC(=O)N1CCC[C@H]1C(=O)N[C@H](CO)C(=O)N[C@H](CO)C(=O)N[C@H](CO)C(=O)N[C@@H](CCCCNC(=O)CC[C@H](NC(=O)CC[C@H](NC(=O)CCCCCCCCCCCCCCC(=O)O)C(=O)O)C(=O)O)C(N)=O)CSCC(=O)N[C@@H](Cc1ccc(O)cc1)C(=O)N2C [Compound 31] ({CH2CO}-Y[NMeK]VVSN[Trp(1-CH2CO)]YK[Trp(5-OH)][Aib]VCGP[dS][dS][dS]K([γGlu-γGlu-C16 diacid])-NH2; lactam 2-7; thioether N-13) | 0.92 nM |
| CC(C)[C@@H]1NC(=O)[C@H](C(C)C)NC(=O)[C@@H]2CCCCNC(=O)Cn3cc(c4ccccc43)C[C@H](NC(=O)[C@H](CC(N)=O)NC(=O)[C@H](CO)NC1=O)C(=O)N[C@@H](Cc1ccc(O)cc1)C(=O)N[C@@H](CCCCN)C(=O)N[C@@H](Cc1c[nH]c3ccc(O)cc13)C(=O)NC(C)(C)C(=O)N[C@@H](C(C)C)C(=O)N[C@H](C(=O)NCCCC[C@H](NC(=O)CC[C@H](NC(=O)CC[C@H](NC(=O)CCCCCCCCCCCCCCC(=O)O)C(=O)O)C(=O)O)C(N)=O)CSCC(=O)N[C@@H](Cc1ccc(C(=O)O)cc1)C(=O)N2C [Compound 19] ({CH2CO}-[Phe(4-COOH)][NMeK]VVSN[Trp(1-CH2CO)]YK[Trp(5-OH)][Aib]VC-X3; lactam 2-7; thioether N-13) | 1.93 nM |

Same assay, conditions: SPR, hGhR; Table 2 monocyclic peptides; KD calculated from ka and kd; read-out: KD

| SMILES | Kd |
| --- | --- |
| COc1ccc2[nH]cc(C[C@@H]3NC(=O)[C@H](CC(N)=O)NC(=O)[C@H](CO)NC(=O)[C@H](C(C)C)NC(=O)[C@H](C(C)C)NC(=O)[C@H](CCCCNC(=O)CC[C@H](NC(=O)CC[C@H](NC(=O)CCCc4ccc(I)cc4)C(=O)O)C(=O)O)N(C)C(=O)[C@H](Cc4ccc(C(=O)O)cc4)NC(=O)CSC[C@@H](C(N)=O)NC(=O)[C@H](C(C)C)NC(=O)C(C)(C)NC(=O)[C@H](Cc4c[nH]c5ccc(O)cc45)NC(=O)[C@H](CCCCN)NC(=O)[C@H](Cc4ccc(C(=O)O)cc4)NC3=O)c2c1 [Compound 40] ({CH2CO}-[Phe(4-COOH)][NMeK]([γGlu-γGlu-Butanoyl(4-(4-I-phenyl))])VVSN[Trp(5-OMe)][Phe(4-COOH)]K[Trp(5-OH)][Aib]VC-NH2; thioether N-13) | 2.96 nM |
| COc1ccc2[nH]cc(C[C@@H]3NC(=O)[C@H](CC(N)=O)NC(=O)[C@H](CO)NC(=O)[C@H](C(C)C)NC(=O)[C@H](C(C)C)NC(=O)[C@H](CCCCNC(=O)CC[C@H](NC(=O)CC[C@H](NC(=O)CCCc4ccc(I)cc4)C(=O)O)C(=O)O)N(C)C(=O)[C@H](Cc4ccc(C(=O)O)cc4)NC(=O)CSC[C@@H](C(=O)NCC(=O)N4CCC[C@H]4C(=O)N[C@H](CO)C(=O)N[C@H](CO)C(=O)N[C@H](CO)C(N)=O)NC(=O)[C@H](C(C)C)NC(=O)C(C)(C)NC(=O)[C@H](Cc4c[nH]c5ccc(O)cc45)NC(=O)[C@H](CCCCN)NC(=O)[C@H](Cc4ccc(C(=O)O)cc4)NC3=O)c2c1 [Compound 42] ({CH2CO}-[Phe(4-COOH)][NMeK]([γGlu-γGlu-Butanoyl(4-(4-I-phenyl))])VVSN[Trp(5-OMe)][Phe(4-COOH)]K[Trp(5-OH)][Aib]VCGP[dS][dS][dS]-NH2; thioether N-13) | 3.79 nM |
| COc1ccc2[nH]cc(C[C@@H]3NC(=O)[C@H](CC(N)=O)NC(=O)[C@H](CO)NC(=O)[C@H](C(C)C)NC(=O)[C@H](C(C)C)NC(=O)[C@H](CCCCNC(=O)CC[C@H](NC(=O)CC[C@H](NC(=O)CCCc4ccc(I)cc4)C(=O)O)C(=O)O)N(C)C(=O)[C@H](Cc4ccc(O)cc4)NC(=O)CSC[C@@H](C(=O)NCC(=O)N4CCC[C@H]4C(=O)N[C@H](CO)C(=O)N[C@H](CO)C(=O)N[C@H](CO)C(N)=O)NC(=O)[C@H](C(C)C)NC(=O)C(C)(C)NC(=O)[C@H](Cc4c[nH]c5ccc(O)cc45)NC(=O)[C@H](CCCCN)NC(=O)[C@H](Cc4ccc(C(=O)O)cc4)NC3=O)c2c1 [Compound 55] ({CH2CO}-Y[NMeK]([γGlu-γGlu-Butanoyl(4-(4-I-phenyl))])VVSN[Trp(5-OMe)][Phe(4-COOH)]K[Trp(5-OH)][Aib]VCGP[dS][dS][dS]-NH2; thioether N-13) | 2.83 nM |
| COc1ccc2[nH]cc(C[C@@H]3NC(=O)[C@H](CC(N)=O)NC(=O)[C@H](CO)NC(=O)[C@H](C(C)C)NC(=O)[C@H](C(C)C)NC(=O)[C@H](CCCCNC(=O)CC[C@H](NC(=O)CCCc4ccc(I)cc4)C(=O)O)N(C)C(=O)[C@H](Cc4ccc(O)cc4)NC(=O)CSC[C@@H](C(=O)NCC(=O)N4CCC[C@H]4C(=O)N[C@H](CO)C(=O)N[C@H](CO)C(=O)N[C@H](CO)C(N)=O)NC(=O)[C@H](C(C)C)NC(=O)C4(CCN(CC(=O)O)CC4)NC(=O)[C@H](Cc4c[nH]c5ccc(O)cc45)NC(=O)[C@H](CCCCN)NC(=O)[C@H](Cc4ccc(C(=O)O)cc4)NC3=O)c2c1 [Compound 51] ({CH2CO}-Y[NMeK]([γGlu-Butanoyl(4-(4-I-phenyl))])VVSN[Trp(5-OMe)][Phe(4-COOH)]K[Trp(5-OH)][X7]VCGP[dS][dS][dS]-NH2; thioether N-13) | 7.57 nM |
| COc1ccc2[nH]cc(C[C@@H]3NC(=O)[C@H](CC(N)=O)NC(=O)[C@H](CO)NC(=O)[C@H](C(C)C)NC(=O)[C@H](C(C)C)NC(=O)[C@H](CCCCNC(=O)CC[C@H](NC(=O)CCCc4ccc(I)cc4)C(=O)O)N(C)C(=O)[C@H](Cc4ccncc4)NC(=O)CSC[C@@H](C(N)=O)NC(=O)[C@H](C(C)C)NC(=O)C(C)(C)NC(=O)[C@H](Cc4c[nH]c5ccc(O)cc45)NC(=O)[C@H](CCCCN)NC(=O)[C@H](Cc4ccc(C(=O)O)cc4)NC3=O)c2c1 [Compound 34] ({CH2CO}-[4Pal][NMeK]([γGlu-Butanoyl(4-(4-I-phenyl))])VVSN[Trp(5-OMe)][Phe(4-COOH)]K[Trp(5-OH)][Aib]VC-NH2; thioether N-13) | 2.77 nM |
